Test results published in patent US10124065B2, “Lipids and lipid compositions for the delivery of active agents” (Novartis AG, priority 2013, dated 2018).

Assays:
human leptin = test: Mouse subcutaneous injection of modified synthetic leptin mRNA, human leptin ELISA; type: in vivo; details: human leptin in mouse plasma, 10 μg leptin mRNA
Protocol: Prior to subcutaneous injection, mouse body weights were recorded and diet weighted, with mice grouped according to their body weights. The mice were manually restrained and placed on a work surface. Their scruffs were pinched and lifted away from the underlying muscle, the space into which was inserted a 25 gauge needle connected with a 1 ml syringe. The syringe plunger was pulled backwards in such a way as to ensure no fluid was drawn into the syringe, and then the desired volume of leptin mRNA was hand injected with moderate pressure and speed. The needle was then withdrawn and the mice returned to their cages.
8-9 week old, male C57BL/6 mice were used for the in vivo study. FPLC purified modified synthetic leptin mRNA (SEQ ID NO: 5) in which the uridines were substituted with pseudouridine (N:P molar ratio=8:1) packaged in multiple cationic lipid were diluted in injectable saline at a dose of 10 μg per average group body weight.
On day 0, animals were weighed and sorted according to average body weight. ice were dosed at 9 AM and blood was taken at 9 AM on day 0. Blood was also taken at 9 AM on each of days 1 and 2 and assessed for leptin protein levels. Body weight and food intake were also recorded.
Human leptin in mouse plasma was measured by ELISA. Antibodies purchased from the R&D Systems duoset (Cat# DY398E, part#840279 for capture antibody and part#840280 for detection antibody) were reconstituted using PBS and titered, again using PBS. The capture antibody was coated at 4 ug/ml in 30 ul/well on a white Nunc® Maxisorp 384 well plate (Cat#460372). After an overnight incubation at room temperature the capture antibody was aspirated and the plate blocked for 2 hours at room temperature with 90 ul/well of KPL milk blocker (Cat#50-82-00). Once the incubation was completed the plate was aspirated and recombinant standards and samples were added to the plate at 30 ul/well for 2 hours at 37° C. while shaking at 600 rpm. Sample/standard dilutions were made using casein sample diluent. Washing/aspiration 3 times with 100 ul/well followed, using Teknova plate wash solution (Cat# P1192). Next, detection antibody was diluted using casein detection antibody diluent to 12.5 ng/ml and added at 30 ul/well for 2 hours room temperature. After this incubation, the plate was washed again and a solution of poly-streptavidin-HRP (Cat#21140) at a 1:1250 dilution in HRP dilution buffer was added to each well (30 ul/well) and incubated for 30 minutes room temperature. A final wash/aspiration removed the HRP solution and a chemiluminescent substrate was added at 30 ul/well (Cat#1859678 & 1859679). The plate was quickly read using a SpectramaxM5 plate reader with a 50 ms integration time. The dynamic range of the ELISA is from 100-2,000 pg/ml (6.25-125 pM) of human leptin. The assay is applicable to plasma from mice, rats and cynomolgus monkeys.

[1] = pKa measurement of cationic lipid (TNS fluorescence); type: physicochemical; details: pKa of the cationic lipid of formula (I); Table 4; listed as Ex. 38
Procedure, shortened: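 Lipid (2 mM ethanol stock) mixed with TNS probe (0.3 mM stock) and diluted into twelve sodium phosphate/citric acid buffers of varying pH. TNS fluorescence read after background subtraction and normalized to the lowest-pH value. pKa taken as the pH at half-maximal normalized fluorescence on the smoothed curve, precise to about 0.1 units.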

[2] = Measurement of mRNA encapsulation (Quant-iT Ribogreen); type: physicochemical; details: leptin mRNA in lipid nanoparticles (cationic lipid, DSPC, cholesterol, stealth lipid)
Protocol: All equipment and disposable supplies were certified free of RNase activity by the manufacturer or rendered RNase free by use of the RNaseZap reagent (LifeTechnologies). mRNA was encapsulated at a cationic lipid amine to mRNA phosphate (N:P) molar ratio of 4:1. Lipids (cationic lipid, DSPC, cholesterol and lipidated PEG or stealth lipid) were dissolved in ethanol. The molar ratios were […], respectively. The mixture was sonicated briefly, then gently agitated for 5 minutes and then maintained at 37° C. until use. mRNA was exchanged into citrate buffer pH 5.8-6.0 by use of Amicon Ultra-15 centrifugal concentrators, and the final concentration was adjusted to 0.5 mg/ml and held at 37° C. until use. An equal volume of lipids in ethanol, mRNA in citrate buffer, and citrate buffer alone were drawn into disposable syringes. Tubing leading from syringes containing lipids and mRNA are attached to the T junction, and tubing leading from the syringe containing citrate buffer alone was paired with the tubing exiting the T-junction over a collection vessel containing a stir bar on an active stir plate. Syringes were placed in a syringe pump set to expel contents at a flow rate of 1 ml per minute.
The pump was activated, and the collected mRNA in lipid nanoparticles was transferred to SnakeSkin dialysis tubing (10,000 MWCO, Thermo Scientific). Material was dialyzed against RNAse- and pyrogen-free 1× phosphate buffered saline overnight at 4° C.
Percent encapsulation of mRNA in lipid nanoparticles was determined using the Quant-iT Ribogreen RNA Assay kit (Life Technologies). The LNP-mRNA suspension was assayed in buffer (mRNA outside the particle), and buffer plus Triton X-100 detergent (total mRNA). The difference calculated was the mRNA inside the particle. A 1000 ng/mL stock from the RNA provided in the kit was prepared and used to generate a standard curve (0 ng/ml, 15.63-1000 ng/ml) in TE and TE+0.75% Triton X-100. LNP-mRNA samples in TE buffer and TE buffer+0.75% Triton X-100 were prepared with appropriate dilution so that reading was in the range of standard curve (400-2,000 fold). In a 384-well plate (Costar non-treated #3573) 0.04 ml of standard (in duplicate) or sample (in triplicate) were added per well. Ribogreen reagent was diluted 240-fold in TE buffer and added 0.06 ml per well. The contents of wells were mixed and fluorescence was measured (excitation=480 nm, emission=520 nm). Background values (no RNA) were subtracted from standard and test sample values and the concentrations of RNA were determined in the samples using the standard curves. The percent encapsulation of the sample was determined by dividing the difference in concentrations between sample+triton and sample in buffer alone by the sample+triton concentration.

Row | SMILES | Leptin expression SC-C57BI/6, 24 h (human leptin) | pKa [1] | % encapsulation [2]
1 | CCCCC/C=C\C/C=C\CCCCCCCC(=O)OCCCCOc1cc(CN(C)C)cc(OCCCCOC(=O)CCCCCCC/C=C\C/C=C\CCCCC)c1 [Example 38, (9Z,9′Z,12Z,12′Z)-((5-((dimethylamino)methyl)-1,3-phenylene)bis(oxy))bis(butane-4,1-diyl)bis(octadeca-9,12-dienoate)] | 0.99 ng/mL | 5.9 | 
2 | CCCCCCCCCCOC(=O)CCCCCCCOc1cc(CN(C)C)cc(OCCCCCCCC(=O)OCCCCCCCCCC)c1 [Example 57, didecyl 8,8′-((5-((dimethylamino)methyl)-1,3-phenylene)bis(oxy))dioctanoate] |  |  | 96.0%
